Experimental data: ChEMBL document CHEMBL1147379, “Antineoplastic agents, 256. Cell growth inhibitory isocarbostyrils from Hymenocallis” (1993)
In brackets after ≈: the same amount, converted by molar mass. Activity calls are given as the source filed them. No cut-off for these calls is given here.

What was measured:
P388 = assay: Growth inhibition of mouse P388 cells; assay type: functional; settings: read-out: ED50 (the source's name)
M5076 = assay: Growth inhibition of mouse M5076 cells; assay type: functional, cell-based

Row | Compound | EC50 (P388) | Activity (M5076)
1 | O=C1N[C@H]2[C@H](O)[C@H](O)[C@@H](O)C[C@@H]2c2cc3c(c(O)c21)OCO3 | 0.02 µg/mL (≈ 0.0647 µM) | 
2 | O=C1N[C@H]2[C@H](O)[C@H](O)[C@@H](O)[C@H](O)[C@@H]2c2cc3c(c(O)c21)OCO3 [PANCRATISTATIN] | 0.01 µg/mL (≈ 0.0307 µM) | Active
